These results are taken from patent US20230151025A1, “SUBSTITUTED THIAZOLOPYRIDINES, SALTS THEREOF AND THEIR USE AS HERBICIDALLY ACTIVE SUBSTANCES” (Bayer Aktiengesellschaft, priority 2020, published 2023).

Holding throughout (assay type): in vivo
For assay [1], the system named is Abutilon theophrasti (ABUTH). The experiment in a line: Herbicidal pre-emergence action (A), 1280 g/ha. The conditions noted are these: visual grading after ca. 3 weeks vs untreated controls, 100% = plants have died off, 0% = as control plants. The gist of the method: (§1)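 Seeds were sown in sandy loam pots (one mono- and one dicot weed per pot) and covered with soil; WP or EC formulations were applied to the soil surface as aqueous suspension/emulsion with 0.5% additive at 600 l water/ha. Damage was scored visually after ca. 3 weeks versus untreated controls (0% = control, 100% = dead).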

Assay [2] relates to Amaranthus retroflexus (AMARE). The experiment in a line: Herbicidal pre-emergence action (A), 1280 g/ha. The conditions noted are these: visual grading after ca. 3 weeks vs untreated controls. The gist of the method:
as §1

Assay [3] deals with Digitaria sanguinalis (DIGSA). The experiment in a line: Herbicidal pre-emergence action (A), 1280 g/ha. The conditions noted are these: visual grading after ca. 3 weeks vs untreated controls, 100% = plants have died off, 0% = as control plants. The gist of the method:
as §1

In assay [4] the test system is Echinochloa crus-galli (ECHCG). In words: Herbicidal pre-emergence action (A), 1280 g/ha. The conditions noted are these: visual grading after ca. 3 weeks vs untreated controls, 100% = plants have died off, 0% = as control plants. The method in brief:
as §1

Assay [5] concerns Kochia scoparia (KCHSC; Bassia scoparia). The experiment in a line: Herbicidal pre-emergence action (A), 1280 g/ha. The conditions noted are these: visual grading after ca. 3 weeks vs untreated controls. The gist of the method:
as §1

The subject of assay [6] is Lolium rigidum (LOLRI). The experiment in a line: Herbicidal pre-emergence action (A), 1280 g/ha. The conditions noted are these: visual grading after ca. 3 weeks vs untreated controls, 100% = plants have died off, 0% = as control plants. The gist of the method: as §1
Assay [7] concerns Poa annua (POAAN). In words: Herbicidal pre-emergence action (A), 1280 g/ha. The conditions noted are these: visual grading after ca. 3 weeks vs untreated controls, 100% = plants have died off, 0% = as control plants. The method in brief: as §1
Assay [8] relates to Setaria viridis (SETVI). The experiment in a line: Herbicidal pre-emergence action (A), 1280 g/ha. The conditions noted are these: visual grading after ca. 3 weeks vs untreated controls. The gist of the method: as §1
Assay [9] has as its system Stellaria media (STEME). The experiment in a line: Herbicidal pre-emergence action (A), 1280 g/ha. The conditions noted are these: visual grading after ca. 3 weeks vs untreated controls. The gist of the method:
as §1

For assay [10], the system named is Veronica persica (VERPE). In words: Herbicidal pre-emergence action (A), 1280 g/ha. The conditions noted are these: visual grading after ca. 3 weeks vs untreated controls. The method in brief:
as §1

Assay [11] concerns Kochia scoparia (KCHSC; Bassia scoparia). In words: Herbicidal post-emergence action (B), 1280 g/ha. The gist of the method: (§2)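 Post-emergence spray, one-leaf stage; WP/EC formulation, aqueous, 0.5% additive, 600 L/ha water. Sandy loam, greenhouse, doubly sown pots. Visual % rating vs untreated control at ~3 weeks (100% = dead).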
The subject of assay [12] is Matricaria inodora (MATIN). The experiment in a line: Herbicidal post-emergence action (B), 1280 g/ha. The conditions noted are these: rated visually after about 3 weeks vs untreated controls. The gist of the method: as §2
The test system of assay [13] is Stellaria media (STEME). The experiment in a line: Herbicidal post-emergence action (B), 1280 g/ha. The gist of the method: as §2
For assay [14], the system named is Veronica persica (VERPE). The experiment in a line: Herbicidal post-emergence action (B), 1280 g/ha. The method in brief: as §2
In assay [15] the test system is Alopecurus myosuroides (ALOMY). The experiment in a line: Herbicidal pre-emergence action (A), 1280 g/ha. The conditions noted are these: visual grading after ca. 3 weeks vs untreated controls, 100% = plants have died off, 0% = as control plants. The gist of the method:
as §1

The test system of assay [16] is Matricaria inodora (MATIN). The experiment in a line: Herbicidal pre-emergence action (A), 1280 g/ha. The conditions noted are these: visual grading after ca. 3 weeks vs untreated controls. The method in brief:
as §1

The test system of assay [17] is Abutilon theophrasti (ABUTH). The experiment in a line: Herbicidal post-emergence action (B), 1280 g/ha. The conditions noted are these: rated visually after about 3 weeks vs untreated controls. The gist of the method:
as §2

Assay [18] relates to Alopecurus myosuroides (ALOMY). The experiment in a line: Herbicidal post-emergence action (B), 1280 g/ha. The conditions noted are these: rated visually after about 3 weeks vs untreated controls. The gist of the method:
as §2

Assay [19] concerns Amaranthus retroflexus (AMARE). In words: Herbicidal post-emergence action (B), 1280 g/ha. The conditions noted are these: rated visually after about 3 weeks vs untreated controls. The gist of the method: as §2
In assay [20] the test system is Echinochloa crus-galli (ECHCG). The experiment in a line: Herbicidal post-emergence action (B), 1280 g/ha. The conditions noted are these: rated visually after about 3 weeks vs untreated controls. The method in brief:
as §2

Assay [21] has as its system Setaria viridis (SETVI). The experiment in a line: Herbicidal post-emergence action (B), 1280 g/ha. The conditions noted are these: rated visually after about 3 weeks vs untreated controls. The method in brief: as §2
In assay [22] the test system is Alopecurus myosuroides (ALOMY). In words: Herbicidal pre-emergence action (C), 320 g/ha. The conditions noted are these: ca. 3 weeks. An excerpt:
(§3) ABUTH: Abutilon theophrasti AGSTE: Agrostis tenuis ALOMY: Alopecurus myosuroides AMARE Amaranthus retroflexus DIGSA: Digitaria sanguinalis ECHCG: Echinochloa crus-galli KCHSC: Kochia scoparia LOLRI: Lolium rigidum MATIN: Matricaria inodora POAAN: Poa annua POLCO: Polygonum convolvulus SETVI: Setaria viridis STEME: Stellaria media VERPE: Veronica persica VIOTR: Viola tricolor
(§4) Seeds of mono- and dicotyledonous weed plants and crop plants were sown, in plastic or organic planting pots, in sandy loam and covered with soil. The compounds according to the invention, formulated in the form of wettable powders (WP) or as emulsifiable concentrates (EC), were applied to the surface of the covering soil as aqueous suspension or emulsion, with the addition of 0.5% of an additive, at an application rate of 600 l of water/ha (converted).
(§5) Following treatment, the pots were placed in a greenhouse and kept under optimum growth conditions for the test plants. The visual grading of the damage to the test plants was carried out after ca. 3 weeks in comparison to untreated controls (herbicidal effect in percent (%): 100% effect=plants have died off, 0% effect=as control plants).
(§6) Tables C1 to C13 below show the effects of selected compounds of the general formula (I) according to table 1 on various harmful plants and an application rate corresponding to 320 g/ha obtained by the experimental procedure mentioned above.

The subject of assay [23] is Amaranthus retroflexus (AMARE). The experiment in a line: Herbicidal pre-emergence action (C), 320 g/ha. The conditions noted are these: ca. 3 weeks.
Source text: as §3, §4, §5, §6

Assay [24] concerns Echinochloa crus-galli (ECHCG). In words: Herbicidal pre-emergence action (C), 320 g/ha. The conditions noted are these: ca. 3 weeks.
Source text: as §3, §4, §5, §6

For assay [25], the system named is Lolium rigidum (LOLRI). The experiment in a line: Herbicidal pre-emergence action (C), 320 g/ha. The conditions noted are these: ca. 3 weeks.
Source text: as §3, §4, §5, §6

Assay [26] relates to Matricaria inodora (MATIN). The experiment in a line: Herbicidal pre-emergence action (C), 320 g/ha. The conditions noted are these: ca. 3 weeks.
Source text: as §3, §4, §5, §6

In assay [27] the test system is Setaria viridis (SETVI). The experiment in a line: Herbicidal pre-emergence action (C), 320 g/ha. The conditions noted are these: ca. 3 weeks.
Source text: as §3, §4, §5, §6

Assay [28] deals with Veronica persica (VERPE). In words: Herbicidal pre-emergence action (C), 320 g/ha. The conditions noted are these: ca. 3 weeks.
Source text: as §3, §4, §5, §6

Take `Cc1cc2scnc2nc1-c1ccccc1C(F)(F)F` [Example I-064]: the “ABUTH, herbicidal effect in percent (%)” value in [1] is reported as 90%. Besides, in assay [2], the “herbicidal effect AMARE” value worked out at 100%. For the same compound, in [3], the “DIGSA, herbicidal effect in percent (%)” value is listed as 100%. The “ECHCG, herbicidal effect in percent (%)” value in assay [4] worked out at 100%. Moreover, the “herbicidal effect KCHSC” value in [5] and in [11] was 100% each time. The “LOLRI, herbicidal effect in percent (%)” value in [6] is given as 100%. For the same compound, the “POAAN, herbicidal effect in percent (%)” value in [7] is 100%. The “herbicidal effect SETVI” value in assay [8] stood at 100%. For the same compound, the “herbicidal effect STEME” value in assay [9] and in assay [13] was 100% throughout. For the same compound, the “herbicidal effect VERPE” value in assay [10] and in assay [14] was 90% in each case. In addition, in [12], the “herbicidal activity MATIN” value came out at 100%.

For `Fc1cccc(-c2nc3ncsc3cc2Cl)c1F` [Example I-114], the “ABUTH, herbicidal effect in percent (%)” value in assay [1] is on record as 90%. In addition, the “ALOMY, herbicidal effect in percent (%)” value in assay [15] amounted to 100%. Further, the “herbicidal effect AMARE” value in assay [2] and in [23] was 90% in each case. In addition, the “ECHCG, herbicidal effect in percent (%)” value in assay [4] was found to be 100%. For the same compound, the “herbicidal effect KCHSC” value in [5] and in assay [11] was 90% throughout. Moreover, the “LOLRI, herbicidal effect in percent (%)” value in assay [6] was determined as 100%. The results for the “herbicidal effect MATIN” value in [16] and in assay [26] were 90% and 80%, respectively. The “POAAN, herbicidal effect in percent (%)” value in assay [7] is 100%. Moreover, the “herbicidal effect SETVI” value in assay [8] is recorded as 100%; in [27], 90%. In addition, in [9], the “herbicidal effect STEME” value was 90%. Besides, the “herbicidal effect VERPE” value was found to be 100% in assay [10], 90% in [14] and 80% in [28]. Besides, in assay [17], the “herbicidal activity ABUTH” value turned out to be 90%. The “herbicidal activity ALOMY” value in [18] is reported as 90%. Also, the “herbicidal activity AMARE” value in assay [19] is on record as 90%. In [20], the “herbicidal activity ECHCG” value stood at 90%. Besides, the “herbicidal activity SETVI” value in assay [21] is 90%. Moreover, in assay [22], the “herbicidal effect ALOMY” value came to 90%. Moreover, the “herbicidal effect ECHCG” value in [24] is listed as 100%. Moreover, the “herbicidal effect LOLRI” value in assay [25] was 100%.
